One assay deals with Sprague Dawley rats. The assay is described as follows: Body mass distribution of rats on high fat diet with tea treatments (DEXA). The assay is classed as in vivo. The conditions noted are these: at 11 and 18 weeks, vs water control.
For a further assay, the system named is rats. The conditions noted are these: treated rats (Zorad et al. 1995); cited from earlier work.
Another assay deals with α-glucosidase. The assay is described as follows: α-Glucosidase inhibition assay. The assay is classed as biochemical. The protocol:
α-Glucosidase: Molasses powder sample was solubilized in water prior to use in this assay. Fucoidan was included as a positive control, and was also solubilized in water.
Glucosidase enzyme was solubilized in acetate buffer (50 mM, pH 4.5) at a concentration of 0.7 mg/mL. This provided a final concentration of 0.2 U/mL. To a 96-well plate, 50 μL of enzyme was added to each well. A corresponding set of wells was also included, in which acetate buffer was added instead of enzyme. Sample/controls were then added to the wells (5 μL), in triplicate, followed by the substrate 4-Nitrophenyl-α-D-glucopyranoside (final concentration 2 mM). The plate was covered, shaken and then incubated at 37° C. for 30 minutes. The reaction was stopped with the addition of 0.2 M Na2CO3 (100 μL/well). Absorbance was measured at 405 nm, using a Victor^2 plate reader.
The absorbance of the wells containing sample, substrate, and buffer were subtracted from the corresponding wells containing the glucosidase enzyme and the percent inhibition by the samples was calculated compared to the solvent controls.

From the text for Sprague Dawley rats: Animals and treatments: Male Sprague Dawley rats (n=48) were purchased from the Animal Resource Centre (Canning Vale, WA) at 3 weeks of age. Animals were allowed to acclimate for 1 week on Purina rat chow and water. From 4 weeks of age, all animals were provided with a semi-synthetic, high fat diet (15% fat, Table 6) (Specialty Feeds, Glen Forrest, WA) and administered one of four fluid treatments: Green Tea, Black Tea, Epigallocatechin Gallate (EGCG) or water. Tea and tea extracts were given as 100% of their fluid intake. Rats were maintained on the high fat diet and tea treatment until week 29. Food and fluid intakes were measured daily and body weights recorded weekly.
Green and Black tea: Green and Black tea bags (Dilmah Natural Green Tea™ and Dilmah Black Tea™) were purchased from a local retail outlet. Ten tea bags (approximately 2 g tea leaves/bag) were steeped in 1 liter of boiling tap water in a covered container for 3 minutes. Tea bags were then expelled of excess tea and the tea preparations made up to a 2 liter volume with cold tap water. This approximated to 1 tea bag per 200 ml of water. […]
Dual Energy X-ray Absorptiometry (DEXA): Body composition was determined by dual energy x-ray absorptiometry using a Hologic QDR-4000/W Absorptiometer. […] Fat, lean and total mass was measured, along with the percentage fat ratio and bone mineral content. […]

Take `O=C(O[C@@H]1Cc2c(O)cc(O)cc2O[C@@H]1c1cc(O)c(O)c(O)c1)c1cc(O)c(O)c(O)c1` [EGCG, (−)-epigallocatechin-3-gallate]: the “grams of lean mass” value in the assay with Sprague Dawley rats is “significantly higher”.

For `CCCCc1nc(Cl)c(CO)n1Cc1ccc(-c2ccccc2-c2nn[nH]n2)cc1` [losartan], the adipocyte size entry in the assay on rats is “reduction”.

On to Fucoidan, for which, on α-glucosidase, the “IC50 (α-glucosidase)” value was 14 µg/mL. Besides, the “% Inhibition of α-glucosidase” value came to 5.7 ± 3.1% in the assay with α-glucosidase (4.7 μg/mL), 19.3 ± 2.7% in the assay with α-glucosidase (9.4 μg/mL), 73.5 ± 7.5% in the assay with α-glucosidase (18.8 μg/mL) and 97.4 ± 5.9% in the assay with α-glucosidase (37.5 μg/mL).

The values above are taken from US8697145B2, “Substances having body mass redistribution properties” (Horizon Science Pty. Ltd., priority 2005, dated 2014).
